Patent publication US20240300945A1, “CLY SERIES COMPOUND, PREPARATION METHOD THEREFOR AND USE THEREOF IN PREPARATION OF DRUGS” (NANJING WELLBEST PHARMACEUTICAL CO., LTD, priority 2021, published 2024)

Legend:
[1] = test system: acute GVHD mice; test: Mouse model of acute graft-versus-host disease; type: in vivo, BALB/c mice; conditions: 5 mg/kg/d intravenously; for pathological changes of liver: 2 weeks after transplantation, hematoxylin-eosin; for clinical symptom score (GVHD): 11th day after transplantation, acute GVHD group 7.48±0.77; for survival rate of mice: Kaplan-Meier, three weeks after transplantation, acute GVHD group 12.13%
Method: Preparation of bone marrow cells: the donor mice were sacrificed by cervical dislocation, soaked in 75% ethanol for 5 minutes, and the two femurs and tibia of the mice were taken out under sterile conditions in the ultra-clean table, and placed in RPMI1640 medium containing 2% fetal bovine serum. Rinsed the bone marrow cavity with RPMI1640 culture medium, took out the bone marrow cells, blew them into the bone marrow suspension with sterile washing tube, filtered them with a 200 mesh filter, centrifuged for 10 min at 1500 r/min, collected the cell precipitates, and added physiological saline for resuspension. In addition, took a small amount of cell suspension and counted the number of nucleated cells after removing the red blood cells from the red blood cell lysate. And adjusted the concentration of nucleated cells in bone marrow suspension to 5×1010 L-1.
Preparation of spleen mononuclear cells: cut the spleen envelope aseptically, put it on a 200-mesh filter screen, soaked it in RPMI1640 medium containing 2% fetal bovine serum by volume, gently grinded the spleen with the handle of a sterile syringe, washed the filter screen several times with the culture medium, collected the filtered spleen cell suspension, centrifuged it at 1500 r/min for 10 min, and collected the spleen cell precipitation. After PBS resuspension, it was blown into a single cell suspension, gently placed on the upper layer of mouse spleen lymphocyte separation solution, centrifuged at 1800 r/min for 20 min, and white membrane cells were collected. PBS was washed twice. After cell count, the cell density was adjusted to 5×1010 L-1, and put in a 4° C. refrigerator for use.
C57BL/6 mice were used as bone marrow transplantation donors and BABL/c mice as recipients. BABL/c mice were randomly divided into the control group, model group, and CLY treatment group (each group was injected with 5 mg/kg/d compound CLY-1, CLY-2, or CLY-8 intravenously) according to the number of body weight, with 6 mice in each group. One week before transplantation, BALB/c mice were fed sterile acidified water containing 200 mg/L gentamicin, and mice were given 8.5 Gy whole-body irradiation (cesium source) within 24 hours before transplantation. Model group and CLY-1 group, CLY-2 group, and CLY-8 group were injected with C57BL/6 mouse bone marrow nucleated cells (including cell 1×107) and spleen mononuclear cells (including cell 5×106) 0.5 mL of mixed solution was used to establish acute GVHD model in mice, and 0.5 mL of normal saline was infused into the tail vein of BABL/c mice in the control group. CLY-1 group, CLY-2 group, and CLY-8 group were injected with CLY compound solution of 5 mg/kg/d intravenously, and the other groups were injected with saline of 5 mg/kg/d.
1.3.1 GVHD symptom score of mice: observed the general conditions of mice every day after transplantation, including body mass, fur, posture, activity, diarrhea, and mental state, and determined whether the mice had acute GVHD. According to the clinical GVHD symptom scoring standard, the clinical GVHD symptoms of mice in each group were scored 11 days after transplantation.
1.3.2 Analysis of mouse survival time: collected the survival data of mice in each group three weeks after transplantation, drew the survival curve by the Kaplan-Meier method, and compared the differences between the survival rates of mice in each group by Log-rank analysis method.
1.3.3 Histopathological examination: two weeks after transplantation, three mice with GVHD were taken from each group, and the back skin tissue, liver, and small intestine tissue were taken. 40 g/L paraformaldehyde was fixed, paraffin was fixed and embedded, hematoxylin-eosin staining was performed, and the pathological changes of each tissue were observed under the light microscope.

[2] = test system: RA model; test: Rheumatoid arthritis (RA) model (Freund's adjuvant complete); type: in vivo, Wistar rats; conditions: RA rats, gavage 10 mg/kg once a day, 21 days; for IL-10 in serum / IL-17 in serum: ELISA; for Joint score (arthritis score): maximum 16 points
Method: Freund's Adjuvant Complete (FCA, purchased from Sigma, USA); IL-10 ELISA kit (Lianke Biotechnology Co., Ltd.); IL-17 ELISA kit (Raybiotech, USA). Eighteen 5-week-old female Wistar rats were randomly divided into the control group, RA model group, and CLY series compound treatment group, with 6 rats in each group. The control group: disinfected the right toe of rats with 75% alcohol, and injected 0.15 mL physiological saline subcutaneously into the right toe of rats. The RA model group: On the first day of the experiment, each rat was routinely disinfected, and 0.15 mL of FCA was injected subcutaneously into the right foot of the rat. The CLY series compound treatment group: On the first day after the experiment, each rat was routinely disinfected, and 0.15 mL of FCA was injected subcutaneously into the right plantar of the rat. After 7 days, CLY series compound was administered by gavage with a dose of 10 mg/kg once a day. The RA model group and control group were administered by gavage with normal saline (10 mg/kg·d) every day for 21 consecutive days. On the 21st day after the intervention of CLY series compounds, 3 mL of blood was collected from the heart of rats, and the serum was isolated. The levels of IL-10 and IL-17 in the serum of rats were detected by ELISA. After the 21st day of intervention, the arthritis score of each group of rats was measured, and the swelling degree of the right toe joint of each group of rats was measured. According to the inflammatory reaction of RA rats, the severity of the ankle joint was scored as 0 to 4, which was normal; 1 point, slightly red and slightly swollen ankle joint; 2 points: erythema and slight swelling from ankle joint to metatarsal joint or metacarpal joint; 3 points: erythema and moderate swelling from ankle joint to metacarpal joint or metatarsophalangeal joint; 4 points, the ankle joint to toe joint were severely red and swollen. Added the limb scores of each rat as the arthritis score, and the maximum score was 16 points.

Compound | pathological changes of liver [1] | clinical symptom score (GVHD) [1] | survival rate of mice [1] [%] | Body mass [2] [g] | Swelling degree (right toe joint) [2] [mm] | IL-10 in serum [2] [pg/mL] | IL-17 in serum [2] [pg/mL] | Joint score (arthritis score) [2]
CCN1CCC[C@@H](N(C(=O)c2ccc(-n3nnc4cccnc43)cc2)c2ncccc2Cl)C1 [CLY-2, (R)-4-(3H-[1,2,3]triazolo[4,5-b]pyridin-3-yl)-N-(3-chloropyridin-2-yl)-N-(1-ethylpiperidin-3-yl)benzamide] | only small necrotic lesions | 4.68±0.42 | 58.79 | 358.2 ± 13.92 | 9.4 ± 0.53 | 67.03 ± 7.02 | 46.23 ± 3.96 | 4.21 ± 0.29
CN1CCC[C@@H](N(C(=O)c2ccc(-n3nnc4cccnc43)cc2)c2ncccc2Cl)C1 [CLY-1, (R)-4-(3H-[1,2,3]triazolo[4,5-b]pyridin-3-yl)-N-(3-chloropyridin-2-yl)-N-(1-methylpiperidin-3-yl)benzamide] | only small necrotic lesions | 5.28±0.53 | 61.26 | 354.5 ± 13.48 | 9.7 ± 0.68 | 65.36 ± 6.78 | 46.15 ± 4.23 | 4.35 ± 0.37
O=C(c1ccc(-c2ccccc2Cl)cc1)N(c1ncccc1Cl)[C@@H]1CCCNC1 [CLY-36] | – | – | – | 352.6 ± 12.96 | 9.3 ± 0.51 | 58.96 ± 5.89 | 44.18 ± 3.97 | 4.46 ± 0.42
O=C(c1ccc(-n2nnc3cccnc32)cc1)N(c1ncccc1Cl)[C@@H]1CCNC1 [CLY-8, (R)-4-(3H-[1,2,3]triazolo[4,5-b]pyridin-3-yl)-N-(3-chloropyridin-2-yl)-N-(pyrrolidin-3-yl)benzamide] | only small necrotic lesions | 4.56±0.39 | 63.48 | 363.5 ± 13.63 | 9.5 ± 0.72 | 66.75 ± 6.78 | 43.51 ± 4.16 | 4.32 ± 0.41
